Data as given in patent US7998993B2, “TRPV1 antagonists” (Abbott Laboratories, priority 2007, dated 2011).
Where two headings read alike, the source gives them in different places.

Experiments:
[1] = Plasma and brain concentrations in rats after an oral dose; type: in vivo; details: rat, fasted male Sprague-Dawley rats, two hours after dosing; for Kp at 2 h: brain/plasma
Procedure: The compounds were prepared as a solution in a 10% DMSO/poly(ethylene glycol)-400 (v/v). Blood and brain samples were obtained from each animal two hours after dosing.
Rat brain tissue was homogenized with two parts water (by weight). Test compound was selectively extracted from plasma and brain homogenate using liquid-liquid extraction with tert-butylmethylether. The compounds of interest were separated from co-extracted contaminants on a 50×3 mm, Luna CN column (Phenomenex), with an acetonitrile:0.1% aqueous trifluoroacetic acid mobile phase at a flow rate of 0.35 ml/min. Plasma and tissue concentrations were determined by HPLC-MS/MS on an API2000 with Turbo Ion Spray interface, with MRM detection in the positive ionization mode. To calibrate compound concentration, a separate portion of each tissue sample was spiked with a known quantity of test compound and analyzed simultaneously with the samples.

human TRPV1 receptor = target: T1, human TRPV1 receptor (Homo sapiens, UniProt Q8NER1); assay: Ca2+ influx assay (FLIPR, Fluo-4 AM) with capsaicin challenge in 1321N1 cells expressing recombinant TRPV1; type: cell-based; details: inhibition of 0.05 μM capsaicin response, hTRPV1 in 1321N1 human astrocytoma cells
T1 construct: expressed in transfected cells
Procedure: Dulbecco's modified Eagle medium (D-MEM) (with 4.5 mg/mL glucose) and fetal bovine serum were obtained from Hyclone Laboratories, Inc. (Logan, Utah). Dulbecco's phosphate-buffered saline (D-PBS) (with 1 mg/mL glucose and 3.6 mg/l Na pyruvate, without phenol red), L-glutamine, hygromycin B, and Lipofectamine® were obtained from Life Technologies (Grand Island, N.Y.). G418 sulfate was obtained from Calbiochem-Novabiochem Corp. (San Diego, Calif.). Capsaicin (8-methyl-N-vanillyl-6-nonenamide) was obtained from Sigma-Aldrich, Co. (St. Louis, Mo.). Fluo-4 AM (N-[4-[6-[(acetyloxy)methoxy]-2,7-difluoro-3-oxo-3H-xanthen-9-yl]-2-[2-[2-[bis[2-[(acetyloxy)methoxy]-2-oxyethyl]amino]-5-methy lphenoxy]ethoxy]phenyl]-N-[2-[(acetyloxy)methoxy]-2-oxyethyl]-glycine, (acetyloxy)methyl ester) was purchased from Molecular Probes (Eugene, Oreg.).
The cDNAs for the human TRPV1 receptor were isolated by reverse transcriptase-polymerase chain reaction (RT-PCR) from human small intestine poly A+RNA supplied by Clontech (Palo Alto, Calif.) using primers designed surrounding the initiation and termination codons identical to the published sequences (Hayes et al. Pain Vol. 88 pages 205-215, 2000). The resulting cDNA PCR products were subcloned into pCIneo mammalian expression vector (Promega) and fully sequenced using fluorescent dye-terminator reagents (Prism, Perkin-Elmer Applied Biosystems Division) and a Perkin-Elmer Applied Biosystems Model 373 DNA sequencer or Model 310 genetic analyzer. Expression plasmids encoding the hTRPV1 cDNA were transfected individually into 1321N1 human astrocytoma cells using Lipofectamine®. Forty-eight hours after transfection, the neomycin-resistant cells were selected with growth medium containing 800 μg/mL Geneticin (Gibco BRL). Surviving individual colonies were isolated and screened for TRPV1 receptor activity. Cells expressing recombinant homomeric TRPV1 receptors were maintained at 37° C. in D-MEM containing 4 mM L-glutamine, 300 μg/mL G418 (Cal-biochem) and 10% fetal bovine serum under a humidified 5% CO2 atmosphere.
The functional activity of compounds at the TRPV1 receptor was determined with a Ca^2+ influx assay and measurement of intracellular Ca^2+ levels ([Ca^2+]i). All compounds were tested over an 11-point half-log concentration range. Compound solutions were prepared in D-PBS (4× final concentration), and diluted serially across 96-well v-bottom tissue culture plates using a Biomek 2000 robotic automation workstation (Beckman-Coulter, Inc., Fullerton, Calif.). A 0.2 μM solution of the TRPV1 agonist capsaicin was also prepared in D-PBS. The fluorescent Ca^2+ chelating dye Fluo-4 AM was used as an indicator of the relative levels of [Ca^2+]i in a 96-well format using a Fluorescence Imaging Plate Reader (FLIPR)(Molecular Devices, Sunnyvale, Calif.). Cells were grown to confluency in 96-well black-walled tissue culture plates. Then, prior to the assay, the cells were loaded with 100 μL per well of Fluo-4 AM (2 μM, in D-PBS) for 1-2 hours at 23° C. Washing of the cells was performed to remove extracellular Fluo-4 AM (2×1 mL D-PBS per well), and afterward, the cells were placed in the reading chamber of the FLIPR instrument. 50 μL of the compound solutions were added to the cells at the 10 second time mark of the experimental run. Then, after a 3-minute time delay, 50 μL of the capsaicin solution was added at the, 190 seconds time mark (0.05 μM final concentration)([…]) to challenge the TRPV1 receptor. Time length of the experimental run was 240 seconds. Fluorescence readings were made at 1 to 5 second intervals over the course of the experimental run. The peak increase in relative fluorescence units (minus baseline) was calculated from the 190 seconds time mark to the end of the experimental run, and expressed as a percentage of the 0.05 μM capsaicin (control) response.

[2] = brain, 30 μmol/kg oral, read-out: [Brain]
[3] = plasma, 30 μmol/kg oral, read-out: [Plasma]
[4] = brain, 10 μmol/kg PO, read-out: [Brain]
[5] = plasma, 10 μmol/kg PO, read-out: [Plasma]

T1 sequence (Q8NER1 whole entry): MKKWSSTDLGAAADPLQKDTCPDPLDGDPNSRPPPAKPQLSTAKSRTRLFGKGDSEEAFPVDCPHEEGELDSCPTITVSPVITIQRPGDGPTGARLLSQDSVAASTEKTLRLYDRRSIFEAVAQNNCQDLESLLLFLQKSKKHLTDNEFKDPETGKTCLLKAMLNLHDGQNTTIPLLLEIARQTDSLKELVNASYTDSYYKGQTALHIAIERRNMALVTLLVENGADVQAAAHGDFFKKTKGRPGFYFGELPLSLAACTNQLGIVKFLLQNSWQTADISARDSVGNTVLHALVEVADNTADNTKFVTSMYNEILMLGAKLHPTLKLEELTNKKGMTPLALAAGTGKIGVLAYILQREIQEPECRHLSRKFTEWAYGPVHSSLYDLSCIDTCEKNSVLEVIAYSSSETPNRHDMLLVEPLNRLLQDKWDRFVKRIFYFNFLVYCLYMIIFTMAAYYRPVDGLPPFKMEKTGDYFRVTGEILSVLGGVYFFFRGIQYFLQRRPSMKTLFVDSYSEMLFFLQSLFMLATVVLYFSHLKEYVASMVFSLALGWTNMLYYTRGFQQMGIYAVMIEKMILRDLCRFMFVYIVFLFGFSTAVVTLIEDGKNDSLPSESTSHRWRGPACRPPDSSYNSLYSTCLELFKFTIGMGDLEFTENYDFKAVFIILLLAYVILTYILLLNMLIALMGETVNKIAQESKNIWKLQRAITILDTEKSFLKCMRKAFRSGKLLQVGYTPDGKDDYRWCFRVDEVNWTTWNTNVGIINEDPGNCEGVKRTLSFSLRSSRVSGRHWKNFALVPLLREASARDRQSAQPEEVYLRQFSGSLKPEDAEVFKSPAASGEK

Kp at 2 h ([1]; 30 μmol/kg oral) | concentration at 2 h [1, 2] | concentration at 2 h [1, 3] | IC50 (human TRPV1 receptor) | Kp at 2 h ([1]; 10 μmol/kg PO) | concentration at 2 h [1, 4] | concentration at 2 h [1, 5] | Compound
3 | 660 ng/g | 210 ng/mL | 43 nM |  |  |  | Cc1nc(Nc2cccc3c2CC(O)CC3)oc1-c1ccc(C(F)(F)F)cc1F (stereo not drawn) [Compound 5, 8-({5-[2-fluoro-4-(trifluoromethyl)phenyl]-4-methyl-1,3-oxazol-2-yl}amino)-1,2,3,4-tetrahydronaphthalen-2-ol]
1.7 | 230 ng/g | 130 ng/mL | 62 nM |  |  |  | Cc1nc(Nc2cccc3c2CC(O)CC3)oc1-c1ccc(C(F)(F)F)c(F)c1F (stereo not drawn) [Compound 6, 8-({5-[2,3-difluoro-4-(trifluoromethyl)phenyl]-4-methyl-1,3-oxazol-2-yl}amino)-1,2,3,4-tetrahydronaphthalen-2-ol]
4 | 2100 ng/g | 510 ng/mL | 184 nM |  |  |  | Cc1nc(Nc2cccc3c2CC(O)CC3)oc1-c1ccc(OC(F)(F)F)cc1 (stereo not drawn) [Compound 9, 8-({4-methyl-5-[4-(trifluoromethoxy)phenyl]-1,3-oxazol-2-yl}amino)-1,2,3,4-tetrahydronaphthalen-2-ol]
6.3 | 3300 ng/g | 490 ng/mL |  |  |  |  | Cc1nc(Nc2cccc3c2CC(O)CC3)oc1-c1ccc(C(F)(F)F)cc1 (stereo not drawn) [Compound 12, 8-({4-methyl-5-[4-(trifluoromethyl)phenyl]-1,3-oxazol-2-yl}amino)-1,2,3,4-tetrahydronaphthalen-2-ol]
5.6 | 600 ng/g | 93 ng/mL | 108 nM |  |  |  | Cc1nc(Nc2cccc3c2CC(O)CC3)oc1-c1ccc(Cl)cc1 (stereo not drawn) [Compound 13, 8-{[5-(4-chlorophenyl)-4-methyl-1,3-oxazol-2-yl]amino}-1,2,3,4-tetrahydronaphthalen-2-ol]
1.3 | 310 ng/g | 250 ng/mL | 36 nM |  |  |  | Cc1nc(Nc2cccc3c2CC(O)CC3)oc1-c1ccc(C#N)cc1 (stereo not drawn) [Compound 15, 4-{2-[(7-hydroxy-5,6,7,8-tetrahydronaphthalen-1-yl)amino]-4-methyl-1,3-oxazol-5-yl}benzonitrile]
 |  |  | 703 nM | 1.3 | 50 ng/g | 40 ng/mL | Cc1nc(Nc2cccc3c2CC(O)CC3)oc1-c1ccc(C(F)(F)F)o1 (stereo not drawn) [Compound 31, 8-({4-methyl-5-[5-(trifluoromethyl)-2-furyl]-1,3-oxazol-2-yl}amino)-1,2,3,4-tetrahydronaphthalen-2-ol]
 |  |  | 395 nM | 1.9 | 15 ng/g | 9 ng/mL | C=C(C)[C@H]1CC=C(c2oc(Nc3cccc4c3CC(O)CC4)nc2C)CC1 (stereo partly drawn) [Compound 32, 8-({5-[(4R)-4-isopropenylcyclohex-1-en-1-yl]-4-methyl-1,3-oxazol-2-yl}amino)-1,2,3,4-tetrahydronaphthalen-2-ol]
 |  |  | 52 nM | 1.4 | 160 ng/g | 110 ng/mL | Cc1nc(Nc2cccc3c2CC(O)CC3)oc1-c1ccc(S(F)(F)(F)(F)F)cc1 (stereo not drawn) [Compound 40, 8-({4-methyl-5-[4-(pentafluoro-lambda˜6˜sulfanyl)phenyl]-1,3-oxazol-2-yl}amino)-1,2,3,4-tetrahydronaphthalen-2-ol]
 |  |  | 74 nM | 2.8 | 410 ng/g | 140 ng/mL | CCc1nc(Nc2cccc3c2C[C@H](O)CC3)oc1-c1ccc(C(F)(F)F)cc1 [Compound 43, (2R)-8-({4-ethyl-5-[4-(trifluoromethyl)phenyl]-1,3-oxazol-2-yl}amino)-1,2,3,4-tetrahydronaphthalen-2-ol]
 |  |  | 618 nM | 2.7 | 800 ng/g | 300 ng/mL | Cc1nc(Nc2cccc3c2CC(O)CO3)oc1-c1ccc(C(F)(F)F)cc1 (stereo not drawn) [Compound 51, 5-({4-methyl-5-[4-(trifluoromethyl)phenyl]-1,3-oxazol-2-yl}amino)chroman-3-ol]
 |  |  | 38 nM | 3.4 | 930 ng/g | 270 ng/mL | O[C@@H]1CCc2cccc(Nc3nc(C(F)F)c(-c4ccc(C(F)(F)F)cc4)o3)c2C1 [Compound 53, (2R)-8-({4-(difluoromethyl)-5-[4-(trifluoromethyl)phenyl]-1,3-oxazol-2-yl}amino)-1,2,3,4-tetrahydronaphthalen-2-ol]
0 | 0 ng/g | 0 ng/mL | 22 nM |  |  |  | OC1CCc2cccc(Nc3ncc(-c4ccc(C(F)(F)F)cc4)o3)c2C1 (stereo not drawn) [Compound A, 8-({5-[4-(trifluoromethyl)phenyl]-1,3-oxazol-2-yl}amino)-1,2,3,4-tetrahydronaphthalen-2-ol, reference compound]
